# Test results as given in patent US9139532B2, “Pyrazolyl guanidine F1F0-atpase inhibitors and therapeutic uses thereof” (Lycera Corporation, priority 2010, dated 2015).
# Read-outs that look alike come from different tables or passages of the source.
# Columns and labels:
# F1F0-ATPase = target: T1, F1F0-ATPase (Bos taurus, UniProt P13621); experiment: Inhibition of F1F0-ATPase activity in synthesizing ATP; format: biochemical; settings: inhibition of ATP synthesis by F1F0-ATPase; read-out: ATP Syn IC50
# T1 construct: from tissue
# Ramos cells = experiment: Cytotoxicity in Ramos cells; format: cell-based; settings: cytotoxicity in Ramos cells, read-out: Ramos Cell EC50
IC50 (F1F0-ATPase) [µM],Structure (SMILES),EC50 (Ramos cells; Homo sapiens) [µM],EC50 (Ramos cells) [µM]
> 10,"CC(C)CN/C(=N/C(=O)c1ccc(F)c(F)c1)Nc1cc(-c2ccc(CO)cc2)n[nH]1 [Compound A-570, (Z)-3,4-Difluoro-N-(((3-(4-(hydroxymethyl)phenyl)-1H-pyrazol-5-yl)amino)(isobutylamino)methylene)benzamide]",> 10,
< 10,COC[C@H](C)N/C(=N/C(=O)c1ccc(C(F)(F)F)cc1)Nc1cc(-c2ccc(OC)c(F)c2)n[nH]1 [Compound A-572],,> 10
< 10,COc1ccc(-c2cc(N/C(=N\C(=O)c3ccc(C(F)(F)F)cc3)NC(C)(C)C)[nH]n2)cc1F [Compound A-575],,< 10
< 10,CC(C)CN/C(=N/C(=O)c1cccc([S+](C)[O-])c1)Nc1cc(-c2ccc(F)cc2)n[nH]1 (stereo not drawn) [Compound A-576],,< 10

# More lines, now with the values behind:
Structure (SMILES),IC50 (F1F0-ATPase) [µM],EC50 (Ramos cells; Homo sapiens) [µM],EC50 (Ramos cells) [µM]
"CC(C)(C)N/C(=N/C(=O)c1ccc(C(F)(F)F)cc1)Nc1cc(C(=O)O)n[nH]1 [Compound A-565, (Z)-5-(3-(tert-Butyl)-2-(4-(trifluoromethyl)benzoyl)guanidino)-1H-pyrazole-3-carboxylic acid]",> 10,> 10,
"CC(C)CN/C(=N/C(=O)c1cccc([S+](C)[O-])c1)Nc1cc(-c2ccc(F)cc2)n[nH]1 (stereo not drawn) [Compound A-566, (Z)—N-(((3-(4-Fluorophenyl)-1H-pyrazol-5-yl)amino)(isobutylamino)methylene)-3-(methylsulfinyl)benzamide]",< 10,< 10,
"O=C(/N=c1\[nH]c2cc(C(F)(F)F)nn2c(=O)n1Cc1ccc(F)cc1Cl)c1ccc(F)c(F)c1 [Compound A-567, (E)-N-(3-(2-chloro-4-fluorobenzyl)-4-oxo-7-(trifluoromethyl)-3,4-dihydropyrazolo[1,5-a][1,3,5]triazin-2(1H)-ylidene)-3,4-difluorobenzamide]",< 10,< 10,
"CC1(C)Cn2nc(-c3ccc(F)cc3)cc2N/C(=N\C(=O)c2ccc(F)cc2)N1 [Compound A-568, (Z)-4-fluoro-N-(8-(4-fluorophenyl)-4,4-dimethyl-4,5-dihydro-1H-pyrazolo[1,5-a][1,3,5]triazepin-2(3H)-ylidene)benzamide]",< 10,< 10,
"O=C(/N=C1\Nc2cc(-c3ccc(F)cc3)nn2C[C@@H]2CCCN12)c1ccc(F)cc1 [Compound A-569, (S,E)-4-fluoro-N-(2-(4-fluorophenyl)-8,9,9a,10-tetrahydro-4H-pyrazolo[1,5-a]pyrrolo[1,2-e][1,3,5]triazepin-5(7H)-ylidene)benzamide]",> 10,> 10,
COc1ccc(-c2cc(N/C(=N\C(=O)c3ccc(C(F)(F)F)cc3)NCC(C)C)[nH]n2)cc1F [Compound A-571],< 10,,< 10
COc1ccc(-c2cc(N/C(=N\C(=O)c3ccc(C(F)(F)F)cc3)NCC(C)(C)C)[nH]n2)cc1F [Compound A-573],< 10,,> 10
COc1ccc(-c2cc(N/C(=N\C(=O)c3ccc(C(F)(F)F)cc3)NC3CCCC3)[nH]n2)cc1F [Compound A-574],< 10,,> 10
